Tests used:
[1] = test system: K562 cells; experiment: toxicity at different time points in K562 cells; type: cell-based; details: K562 leukemia cells, up to 48 hours
Source text: FIG. 7A is a graphical representation of the toxicity of compound 5 at different time points in K562 cells.
FIG. 7B is a graphical representation of the toxicity of compound 6 at different time points in K562 cells.
FIG. 10 is a graphical representation of the toxicity of luminespib (compound 7, as shown in FIG. 6C) at different time points in K562 cells.

[2] = test system: K562 cells; experiment: apoptosis measured via Annexin V staining; type: cell-based; details: 2.5 μM, 24 hours
Procedure: FIG. 8A is a chart illustrating apoptosis as measured via Annexin V staining of K562 cells treated for 24 hours with 2.5 μM of the compounds indicated. Cell populations were gated with annexin V+/Sytox red− cells as early apoptotic, and annexin V+/Sytox red+ cells as late apoptotic.
As controls, the parent compound luminespib (FIG. 8C, compound 7), and the empty disulfide vector (FIG. 6D) were also tested. The cells were treated with 2.5 μM of each compound.

CCNC(=O)c1noc(-c2cc(C(C)C)c(O)cc2O)c1-c1ccc(CN2CCOCC2)cc1 [luminespib, 5-(2,4-Dihydroxy-5-isopropylphenyl)-N-ethyl-4-(4-(morpholinomethyl)phenyl)isoxazole-3-carboxamide]
cell toxicity over time [1]: growth inhibition | apoptosis (early and late apoptotic cell populations) [2]: no increase

Reference: patent publication US20220273664A1, “Mitochondrial Targeted Releasable Linker” (THE GOVERNING COUNCIL OF THE UNIVERSITY OF TORONTO, priority 2017, published 2022)
